Assay results published in US7411067B2, “Crystalline forms of gatifloxacin” (Teva Pharmaceutical Industries Ltd, priority 2002, dated 2008).

Assays:
[1] = reported in U.S. Pat. No. 5,880,283; cited from earlier work
[2] = reported in U.S. Pat. No. 5,880,283; cited from earlier work; remark: listed apart in the source
[3] = Exposure of powder as a thin layer in a controlled humidity cell; resulting crystalline form by x-ray diffraction; format: physicochemical; conditions: 200 mg powder as thin layer
Method: As used herein in connection with the present invention, x-ray diffraction refers to x-ray diffraction by the powder diffraction technique. X-ray powder diffraction analysis was performed using a Scintag powder diffractometer with variable goniometer, a Cu source, and a solid state detector. A standard round aluminum sample holder with zero background quartz plate was used. Samples were scanned from 2° to 40° 2θ at 3° per minute in the continuous scan mode. Reflections are reported as peak maxima in the intensity vs. 2θ plots, and are subject to the normal experimental error (uncertainty). Samples were promptly analyzed “as is”.
In another embodiment, the present invention provides a method of making a mixture of novel crystalline form O and prior-art sesqihydrate. The ratios will depend, inter alia, on the conditions of treatment. The mixtures can be made by exposing prior art forms omega or TE, or crystalline form C (characterized by x-ray reflections at 7.2°, 10.8°, 15.8°, 21.8°, and 26.2°±0.2° 2θ) to an atmosphere having a relative humidity of at least about 60% (form c), or at least about 80% (form TE and omega) for an exposing time. The exposing time will generally be between about 24 hours and two weeks.
Preferably, the form omega, TE, or C is exposed as a thin layer of particles or crystals to facilitate diffusion of gasses and vapors. Preferably, the exposing is at ambient temperature.
The present invention can be further illustrated with the following non-limiting examples. In the following examples, the polymorphic or pseudopolymorphic form of gatifloxacin was determined by x-ray diffraction.
Gatifloxacin in form Ω (200 mg powder) was spread as a thin layer in a container having short vertical walls. The container was placed in a controlled humidity cell at 100% RH for 1 week.

[4] = room temperature, among the crystalline forms, per WO 02/22126 A1; cited from earlier work
[5] = among the crystalline forms, per WO 02/22126 A1; cited from earlier work

| Compound | hygroscopicity [2] | crystalline form found after humidity exposure ([3]; 80% RH, two weeks) | crystalline form found after humidity exposure ([3]; 100% RH, two weeks) | also measured |
| --- | --- | --- | --- | --- |
| COc1c(N2CCNC(C)C2)c(F)cc2c(=O)c(C(=O)O)cn(C3CC3)c12 (stereo not drawn) [sesquihydrate, gatifloxacin] | less hygroscopic | – | – | stability in manufacturing [1]: more stable |
| COc1c(N2CCNC(C)C2)c(F)cc2c(=O)c(C(=O)O)cn(C3CC3)c12 (stereo not drawn) [form C, gatifloxacin] | – | approximately 30:70 mixture by weight of form O and sesquihydrate | mixture of form O and sesquihydrate | crystalline form found after humidity exposure ([3]; 60% RH, two weeks): approximately 80:20 mixture by weight of form C and form O |
| COc1c(N2CCNC(C)C2)c(F)cc2c(=O)c(C(=O)O)cn(C3CC3)c12 (stereo not drawn) [form TE, gatifloxacin] | – | approximately equal weight mixture (1:1) of form O and sesquihydrate | approximately equal weight (1:1) mixture of form O and sesquihydrate | – |
| COc1c(N2CCNC(C)C2)c(F)cc2c(=O)c(C(=O)O)cn(C3CC3)c12 (stereo not drawn) [pentahydrate, gatifloxacin] | – | – | – | aqueous solubility [4]: lowest; thermodynamic stability [5]: most thermodynamically stable form |
| COc1c(N2CCNC(C)C2)c(F)cc2c(=O)c(C(=O)O)cn(C3CC3)c12 (stereo not drawn) [form Ω, gatifloxacin] | – | – | – | crystalline form found after humidity exposure ([3]; 80% RH, 1 week): approximately equal weight (1:1) mixture of form O and form Ω; crystalline form found after humidity exposure ([3]; 100% RH, 1 week): approximately equal weight (1:1) mixture of form O and sesquihydrate |
| COc1c(N2CCNC(C)C2)c(F)cc2c(=O)c(C(=O)O)cn(C3CC3)c12 (stereo not drawn) [hemihydrate, gatifloxacin] | hygroscopic | – | – | – |
